Measured values taken from patent US6022536A, “Combined use of interleukin 10 and cyclosporin for immunosuppression therapy” (Schering Corporation, priority 1996, dated 2000).

What was measured:
Type in all cases: cell-based, human
IL-2 [1] = test: IL-2 in supernatant of JY-induced MLR, ELISA; settings: 60 hours; IL-10 100 U/ml, CSA 40 ng/ml; PBMC JY alone 3006
Description: (§1) ELISA kits for cytokine production determination were purchased from R&D systems, Minneapolis, Minn.
(§2) To investigate the mechanism by which B cell line-induced MLR resists suppression by IL-10, the effect of IL-10 on cytokine synthesis in this MLR was examined. The presence of IL-2, IFN-γ and TNF-α in supernatants of MLR set up with and without IL-10 ([…]) for 60 hours was determined using ELISA kits.
(§3) ^a The MLR cultures were set up as described above using PBMC (1
(§4) × 10^6 /ml) as responder and mitomycin Ctreated JY cells (5
(§5) × 10^5 cell/) or allogeneic PBMC (5 × 10^5) as
(§6) stimulators in a 24well plate for 60 hours. IL10 was used at 100 U/ml and […]

IFN-γ [2] = test: IFN-γ in supernatant of PBMC + PBMC MLR, ELISA; settings: 60 hours; IL-10 100 U/ml; detection limit 25 pg/ml
Description: as §1, §2, §3, §4, §5, §6

PBMC + B = test: MLR with purified normal B cells (CD20+) as stimulators, [3H]TdR uptake; settings: IL-10 200 U/ml; medium 3939 ± 100
Description: (§7) The stimulator PBMAC were treated with 50 μl mitomycin C (Sigma Chemical Co., St. Louis, Mo.) for 20 minutes at 37° C. The responder PBMC and the stimulator cells were added to a 96-well microtiter plate (Becton Dickinson, Lincoln Park, N.J.) at 1×10^5 cells per well of each, along with cytokines or antibodies in a total volume of 200 μl in triplets. The cultures were incubated at 37° C. with 5% CO2 in air for 6 days. The cultures were then pulsed with 1 μCi [^3 H]TdR (15.6CI/mmol, NEN, Boston, Mass.) per well for 16 hours. The cells were harvested onto a filter using a 96-well cell harvestor (Skatron, Inc., Sterling, Va.) and counted on a beta counter (Pharmacia LKB Nuclear Inc., Gaithersburg, Md.).
(§8) The supernatant from the MLR was removed and the non-adherent PBMC harvested. The adherent cells were harvested by incubation with 5 mM EDTA at 4° C. for 20 minutes and gently scraped. Cells were combined, centrifuged at 300×g for 10 minutes and washed 3 times in ice-cold PBS. The viable cells were enumerated by Trypan Blue exclusion using a Neubaeur counting chamber, resuspended to 1×10^7 cell/ml in PBS and 100 μl of human IgG (1 mg/ml) was added to each well and incubated on ice. […] Mean channel fluorescence and percent positives for specific markers were determined using LYSIS II software (BDIS). […]

[3] = test system: direct allostimulation of T cells; test: direct allostimulation: one way primary MLR, responder PBMCs depleted of APC; settings: responder PBMCs depleted of APC's; similar with CD4+ or CD8+ responders
Description: (§9) Purified PBMC from human blood were collected in heparinated tubes by FICOLL gradient. The blood was diluted 1:1 with PBS. 30 ml of the diluted blood was laid on top of 20 ml Ficoll in a 50 ml conical tube and spun at 2,000 rpm for 30 minutes. The interface cells were collected and washed 3 times with medium (10% FCS/RPMI).
(§10) The plastic adherent antigen presenting cells (APC) were removed by resuspended PBMC in 1%. human serum (Type AB) at 1×10^6 cells/ml, and incubated at 37° C. for 30 min. The cells which floated were collected and placed in media (10% FCS/RPMI).
(§11) Nylon wool adherent APC were removed as follows:
(§12) A 10 ml syringe was packed with 1.5 g of nylon wool (Polysciences, Inc., Cat. #18369) and autoclaved. A 3-way stopcock and a 22-gauge needle were attached to the syringe, and the column was washed with 50 ml of prewarmed medium. A cell suspension of 5×10^7 cells/ml of […] was prepared in prewarmed medium. Just before adding the cell suspension, the wool was rinsed with 5 ml of prewarmed medium, the column was left to run dry, and the stopcock was closed. Cells (5-10×10^7) were added. The cells were allowed to penetrate the column, and the stopcock was closed. An additional 0.5 ml of medium was added and the column maintained at 37° C. for 45 minutes. […]

PBMC + JY = test: MLR with JY B cell line as stimulator, [3H]TdR uptake
Description: as §7
(§13) To address this question further, the ability of IL-10 to suppress the proliferation in MLR when allogeneic PBMC, purified B cells, monocytes or B cell lines were used as stimulators was studied.

TNF-α [4] = test: TNF-α in supernatant of JY-induced MLR, ELISA; settings: 60 hours; IL-10 100 U/ml, CSA 40 ng/ml; PBMC JY alone 154
Description: as §1, §2, §3, §4, §5, §6

PBMC + Daudi = test: MLR with Daudi B cell line as stimulator, [3H]TdR uptake; settings: IL-10 200 U/ml; medium 37357 ± 4497
Description: as §7, §13

IFN-γ [5] = test: IFN-γ in supernatant of JY-induced MLR, ELISA; settings: 60 hours; IL-10 100 U/ml, CSA 40 ng/ml; PBMC JY alone 5715
Description: as §1, §2, §3, §4, §5, §6

[6] = test system: indirect allostimulation of T cells; test: indirect allostimulation: MLR, APC depleted from the stimulator population; settings: APC's depleted from the stimulator population
Description: as §9, §10, §11, §12

TNF-α [7] = test: TNF-α in supernatant of PBMC + PBMC MLR, ELISA; settings: 60 hours; IL-10 100 U/ml; detection limit 25 pg/ml
Description: as §1, §2, §3, §4, §5, §6

[8] = test system: T cell proliferation in MLR (PBMC); test: one-way primary mixed lymphocyte reaction (MLR), PBMC + mitomycin-treated allogeneic PBMC, [3H]TdR uptake
Description: Human blood samples were collected in heparinized vacutainers. To facilitate removal of red blood cells (RBC), 2 ml of 6% dextran in phosphate buffered saline (PBS) (JRH Biosciences, Lenexa, Kans.) was added to each vacutainer, mixed and allowed to stand at room temperature for 30-45 min. The top buffy coat layer was carefully removed and cells centrifuged (300×g, 10 min., 4° C.). The cells were washed 3 times in 15 ml PBS. The peripheral blood mononuclear cells (PBMC) were isolated using a FICOLL-PAQUE (Pharmacia, Piscataway, N.J.) gradient. Ten ml of cells were layered on top of 4 ml FICOLL-PAQUE, centrifuged (1400×g, 20 min., room temperature) and the cells sedimenting at the interface were collected. These PBMC were washed 3 times in PBS, enumerated and resuspended in appropriate media for use in MLR experiments. […] Cell purity determined by staining with CD14 monoclonal antibodies and flow microfluorometric (FMF) analysis was 92% CD14^+. Viability determined by trypan blue exclusion was >95%.
The stimulator PBMAC were treated with 50 μl mitomycin C (Sigma Chemical Co., St. Louis, Mo.) for 20 minutes at 37° C. […] The cells were harvested onto a filter using a 96-well cell harvestor (Skatron, Inc., Sterling, Va.) and counted on a beta counter (Pharmacia LKB Nuclear Inc., Gaithersburg, Md.). […]

PBMC + monocytes = test: MLR with purified monocytes (CD14+) as stimulators; settings: monocytes (98% CD14+) as stimulators, PBMC as responder
Description: as §7, §8

IL-2 [9] = test: IL-2 in supernatant of PBMC + PBMC MLR, ELISA; settings: 60 hours; IL-10 100 U/ml; detection limit 50 pg/ml
Description: as §1, §2, §3, §4, §5, §6

## IL-10: human interleukin 10, a cytokine produced by T lymphocytes
IL-2 [1]
  Cytokine concentration IL-2: 1294 pg/mL
IFN-γ [2]
  Cytokine concentration IFN-γ: < 25 pg/mL
PBMC + B
  CPM (M ± SD), 3H-TdR uptake: 182 ± 47 CPM
[3]
  suppression of direct allostimulation, compared with CSA: more suppression than CSA
PBMC + JY; IL-10 200 U/ml, medium 26222 ± 6293
  CPM (M ± SD), 3H-TdR uptake: 25182 ± 7302 CPM
PBMC + JY; higher doses of IL-10 up to 1000 U/ml
  suppression of JY-induced MLR: did not suppress
TNF-α [4]
  Cytokine concentration TNF-α: 209 pg/mL
PBMC + Daudi
  CPM (M ± SD), 3H-TdR uptake: 45763 ± 3089 CPM
IFN-γ [5]
  Cytokine concentration IFN-γ: 2960 pg/mL
[6]
  inhibition of indirect allostimulation, compared with CSA: stronger inhibitor to the indirect allostimulation than CSA
TNF-α [7]
  Cytokine concentration TNF-α: < 25 pg/mL
[8]
  IC50: 8 pM
[8]; Human IL-10 100 U/ml, 19B1 and rat IgG at 2.5 U g/ml, untreated MLR 5127 ± 935
  CPM (mean ± SD), 3H-TdR uptake: 643 ± 197 CPM
PBMC + monocytes
  suppression of MLR-induced proliferation: strongly suppresses
IL-2 [9]
  Cytokine concentration IL-2: < 50 pg/mL
